System: R. oryzae
Experiment: Survival of diabetic ketoacidotic (DKA) mice infected with R. oryzae
Format: in vivo, BALB/c male mice
Settings: DKA mice; for survival compared to controls: 2.2×10^4 spores R. oryzae 99-892, 1, 3, or 10 mg/kg bid for seven days; for 28 day survival: R. oryzae 99-892
Description: Briefly, for in vivo infection, BALB/c male mice (>20 g) were rendered diabetic with a single i.p. injection of 210 mg/kg streptozotocin in 0.2 ml citrate buffer 10 days prior to fungal challenge. […] Mice were infected through the tail vein with the appropriate inocula of R. oryzae. To confirm the inocula, dilutions were streaked on PDA plates and colonies were counted following a 24 h incubation period at room temperature. The primary efficacy endpoint was time to death. As a secondary endpoint, brain fungal burden (the primary target organ) was determined by homogenization by rolling a pipette on organs placed in Whirl-Pak bags (Nasco, Fort Atkinson, Wis.) containing 2 ml saline. The homogenate was serially diluted in 0.85% saline and then quantitatively cultured on PDA. Values were expressed as log 10 cfu g^−1 tissue. All procedures involving mice were approved by the institutional animal use and care committee, following the National Institutes of Health guidelines for animal housing and care.
Deferiprone (Apotex Research Inc.) was dissolved in iron-free water and administered intraperitoneally at 50, 100, or 200 mg/kg qd or qod (every other day). Treatment was begun 24 h post infection and continued for a total of 4 doses. Control groups were treated with the diluent, 5% dextrose water.
Deferiprone is known to form molecular complexes with ferric iron (^3+Fe) in a 1:3 ratio of iron to deferiprone. Based on the known molecular weights of ferric chloride (FeCl3, molecular weight 162.22 g/mol) and deferiprone (molecular weight 139 g/mol), a 60 mg/kg dose of FeCl3 was calculated to result in a significant excess of ^3+Fe vs. a 100 mg/kg dose of deferiprone given to an 18 g mouse: ^3+Fe moles=(0.060 g/kg*0.018 kg [mouse weight]/162.22 g/mol)=6.5×10^−6 mol vs. deferiprone moles=(0.1 g/kg*0.018 kg [mouse weight]/139 g/mol)=1.3×10^−5 mol Ratio=1:2 moles of ^3+Fe to deferiprone, which is more than that required to achieve a saturating 1:3 ratio.
Statistical analysis was performed using the nonparametric log rank test was used to determine differences in survival times of the mice. Differences in tissue fungal burdens in the infected organs were compared by the nonparametric Steel test for multiple comparisons. P values of <0.05 were considered significant.
Deferasirox (Novartis Pharmaceuticals, Basel, Switzerland) was suspended in 0.5% hydroxypropylcellulose (Klucel) and administered by oral gavage at 1, 3, or 10 mg/kg […] (qd) or every other day (qod). Treatment was begun 24 h post infection and continued for a total of 5 or 7 doses. Control groups were treated with the diluent, 5% dextrose water and 0.5% Klucel. In some experiments, a saturating dose of free iron was administered with deferasirox. Deferasirox is known to form molecular complexes with ferric iron (^3+Fe) in a 1:2 ratio of iron to deferasirox. Based on the known molecular weights of ferric chloride (FeCl3, molecular weight 162.22 g/mol) and deferasirox (molecular weight 373.4 g/mol), a 2.8 mg/kg dose of FeCl3 was calculated to result in a significant excess of ^3+Fe vs. a 10 mg/kg dose of deferasirox given to an 18 g mouse: ^3+Fe moles=(0.0028 g/kg*0.018 kg [mouse weight]/162.22 g/mol)=3×10^−7 mol vs. deferasirox moles=(0.01 g/kg*0.018 kg [mouse weight]/373.4 g/mol)=5×10^−7 mol Ratio=1:1.7 moles of ^3+Fe to deferasirox, which is more than that required to achieve a saturating 1:2 ratio.
The nonparametric log rank test was used to determine differences in survival times of the mice. Differences in tissue fungal burdens, splenic lymphocyte frequencies, and whole organ cytokines in the infected organs were compared by the Mann Whitney U test. P values of <0.05 were considered significant.

Q: How did the “time to death compared to placebo” value (1.3×10^3 spores R. oryzae 99-880, 10 mg/kg bid seven days) turn out when O=C(O)c1ccc(-n2nc(-c3ccccc3O)nc2-c2ccccc2O)cc1 [Deferasirox, 4-[3,5-Bis(2-hydroxyphenyl)-1H-1,2,4-triazol-1-yl]-benzoic acid] was run?
A: significantly improved time to death

Q: What about the “survival compared to controls” value of the same compound?
A: significantly improved survival

Q: What about the “survival compared to controls” value (listed as Exjade) of the same compound?
A: improves survival

Q: What about the survival (R. oryzae 99-880, Deferasirox 10 mg/kg po twice daily, LAmB 15 mg/kg iv once daily 4 doses, or both, placebo 0%) of the same compound?
A: 25%

Q: What about the 28 day survival (1 mg/kg bid oral gavage 7 days, placebo 0%, p=0.03) of the same compound?
A: 29%

Q: What about the 28 day survival (3 mg/kg bid oral gavage 7 days, placebo 0%, p=0.049) of the same compound?
A: 40%

Q: And the 28 day survival (10 mg/kg bid oral gavage 7 days, placebo 0%, p=0.01)?
A: 57%

Q: What about the “protective effect on administration of free iron” value (deferasirox plus saturating ferric chloride) of the same compound?
A: reversed

Reference: US20100129434A1, “COMPOSITIONS AND METHODS FOR THE TREATMENT OF MUCORMYCOSIS AND OTHER FUNGAL DISEASES” (priority 2006, published 2010)
